What follows are compounds tested against PD-1/PD-L1 (Homo sapiens (Human), UniProt Q9NZQ7) (assay: PD-1/PD-L1 binding assay (HTRF)).
Summary of the method: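 HTRF read-out (665/620 nm) after 60 min at 25 °C with 1 nM Eu anti-human IgG and 20 nM APC anti-His. Beforehand, inhibitors were preincubated 40 min with Fc-PD-1 (25-167, […] as listed) and His-PD-L1 (19-238, 10 nM) in PBS pH 7.4 with Tween-20, BSA, 1% DMSO; IC50 from log-concentration curve.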

Chain of PD-1/PD-L1 (Q9NZQ7 19-238): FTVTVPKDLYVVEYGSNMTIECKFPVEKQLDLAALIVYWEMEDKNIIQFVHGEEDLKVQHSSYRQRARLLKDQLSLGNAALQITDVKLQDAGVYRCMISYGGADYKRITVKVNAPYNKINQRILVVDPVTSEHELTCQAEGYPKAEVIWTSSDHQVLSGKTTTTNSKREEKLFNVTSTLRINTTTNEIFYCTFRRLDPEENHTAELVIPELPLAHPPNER

IC50, ≤ 10 nM:
Cn1c(C(=O)Nc2cccc(-c3cccc(NC(=O)c4nc5c(n4C)CCN(C4CCOCC4)C5)c3Cl)c2Cl)nc2c1CCN(C[C@H]1CC[C@@H](C(=O)O)CC1)C2 [Example 73, cis-4-((2-((2,2′-dichloro-3′-(1-methyl-5-(tetrahydro-2H-pyran-4-yl)-4,5,6,7-tetrahydro-1H-imidazo[4,5-c]pyridine-2-carboxamido)-[1,1′-biphenyl]-3-yl)carbamoyl)-1-methyl-1,4,6,7-tetrahydro-5H-imidazo[4,5-c]pyridin-5-yl)methyl)cyclohexane-1-carboxylic acid]
Cc1c(NC(=O)c2nc3c(n2C)CCN(C(C)C)C3)cccc1-c1cccc(NC(=O)c2nc3c(n2C)CCN(CC[C@H]2CC[C@H](C(=O)O)CC2)C3)c1Cl [Example 129, trans-4-(2-(2-((2-chloro-3′-(5-isopropyl-1-methyl-4,5,6,7-tetrahydro-1H-imidazo[4,5-c]pyridine-2-carboxamido)-2′-methyl-[1,1′-biphenyl]-3-yl)carbamoyl)-1-methyl-1,4,6,7-tetrahydro-5H-imidazo[4,5-c]pyridin-5-yl)ethyl)cyclohexane-1-carboxylic acid]
Cn1c(C(=O)Nc2cccc(-c3cccc(NC(=O)c4nc5c(n4C)CCN(C4CCC(C(=O)O)CC4)C5)c3Cl)c2Cl)nc2c1CCN(C1CCOCC1)C2 (stereo not drawn) [Example 97, 4-(2-((2,2′-dichloro-3′-(1-methyl-5-(tetrahydro-2H-pyran-4-yl)-4,5,6,7-tetrahydro-1H-imidazo[4,5-c]pyridine-2-carboxamido)-[1,1′-biphenyl]-3-yl)carbamoyl)-1-methyl-1,4,6,7-tetrahydro-5H-imidazo[4,5-c]pyridin-5-yl)cyclohexane-1-carboxylic acid]
Cn1c(C(=O)Nc2cccc(-c3cccc(NC(=O)c4nc5c(n4C)CCN(C4CCOCC4)C5)c3C#N)c2Cl)nc2c1CCN(CC[C@H]1CC[C@H](C(=O)O)CC1)C2 [Compound 153, trans-4-(2-(2-((2-chloro-2′-cyano-3′-(1-methyl-5-(tetrahydro-2H-pyran-4-yl)-4,5,6,7-tetrahydro-1H-imidazo[4,5-c]pyridine-2-carboxamido)-[1,1′-biphenyl]-3-yl)carbamoyl)-1-methyl-1,4,6,7-tetrahydro-5H-imidazo[4,5-c]pyridin-5-yl)ethyl)cyclohexane-1-carboxylic acid]
Cn1c(C(=O)Nc2cccc(-c3cccc(NC(=O)c4nc5c(n4C)CCN(C4CCC4)C5)c3Cl)c2Cl)nc2c1CCN(CC[C@H]1CC[C@H](C(=O)O)CC1)C2 [Example 89, trans-4-(2-(2-((2,2′-dichloro-3′-(5-cyclobutyl-1-methyl-4,5,6,7-tetrahydro-1H-imidazo[4,5-c]pyridine-2-carboxamido)-[1,1′-biphenyl]-3-yl)carbamoyl)-1-methyl-1,4,6,7-tetrahydro-5H-imidazo[4,5-c]pyridin-5-yl)ethyl)cyclohexane-1-carboxylic acid]
Cc1c(NC(=O)c2nc3c(n2C)CCN(CC2CCOCC2)C3)cccc1-c1cccc(NC(=O)c2nc3c(n2C)CCN(C)C3)c1Cl [Example 30, N-(2-chloro-2′-methyl-3′-(1-methyl-5-((tetrahydro-2H-pyran-4-yl)methyl)-4,5,6,7-tetrahydro-1H-imidazo[4,5-c]pyridine-2-carboxamido)biphenyl-3-yl)-1,5-dimethyl-4,5,6,7-tetrahydro-1H-imidazo[4,5-c]pyridine-2-carboxamide]
Cc1c(-c2nc3c(o2)CN(C(=O)CN(C)C)C3)cccc1-c1cccc(NC(=O)c2nc3c(n2C)CCN(C2CCC(C)(C(=O)O)CC2)C3)c1Cl (stereo not drawn) [Compound 168, 4-(2-((2-chloro-3′-(5-(dimethylglycyl)-5,6-dihydro-4H-pyrrolo[3,4-d]oxazol-2-yl)-2′-methyl-[1,1′-biphenyl]-3-yl)carbamoyl)-1-methyl-1,4,6,7-tetrahydro-5H-imidazo[4,5-c]pyridin-5-yl)-1-methylcyclohexane-1-carboxylic acid]
Cc1c(NC(=O)c2nc3c(n2C)CCN(C2CCC(C)(C(=O)O)CC2)C3)cccc1-c1cccc(NC(=O)c2nc3c(n2C)CCN(C(C)C)C3)c1Cl (stereo not drawn) [Example 106, 4-(2-((2′-chloro-3′-(5-isopropyl-1-methyl-4,5,6,7-tetrahydro-1H-imidazo[4,5-c]pyridine-2-carboxamido)-2-methyl-[1,1′-biphenyl]-3-yl)carbamoyl)-1-methyl-1,4,6,7-tetrahydro-5H-imidazo[4,5-c]pyridin-5-yl)-1-methylcyclohexane-1-carboxylic acid]
CN1CCc2c(nc(C(=O)Nc3cccc(-c4cccc(NC(=O)c5nc6c(n5C)CCN(C[C@H]5CC[C@H](C(=O)O)CC5)C6)c4C#N)c3Cl)n2C)C1 [Compound 147, trans-4-((2-((2′-chloro-2-cyano-3′-(1,5-dimethyl-4,5,6,7-tetrahydro-1H-imidazo[4,5-c]pyridine-2-carboxamido)-[1,1′-biphenyl]-3-yl)carbamoyl)-1-methyl-1,4,6,7-tetrahydro-5H-imidazo[4,5-c]pyridin-5-yl)methyl)cyclohexane-1-carboxylic acid]
CCN1CCc2c(nc(C(=O)Nc3cccc(-c4cccc(NC(=O)c5nc6c(n5C)CCN(CC[C@H]5CC[C@H](C(=O)O)CC5)C6)c4Cl)c3C#N)n2C)C1 [Compound 151, trans-4-(2-(2-((2-chloro-2′-cyano-3′-(5-ethyl-1-methyl-4,5,6,7-tetrahydro-1H-imidazo[4,5-c]pyridine-2-carboxamido)-[1,1′-biphenyl]-3-yl)carbamoyl)-1-methyl-1,4,6,7-tetrahydro-5H-imidazo[4,5-c]pyridin-5-yl)ethyl)cyclohexane-1-carboxylic acid]
Cc1c(NC(=O)c2nc3c(n2C)CCN(C2CCOCC2)C3)cccc1-c1cccc(NC(=O)c2nc3c(n2C)CCN(C2CCC(C(=O)O)CC2)C3)c1Cl (stereo not drawn) [Example 125, 4-(2-((2-chloro-2′-methyl-3′-(1-methyl-5-(tetrahydro-2H-pyran-4-yl)-4,5,6,7-tetrahydro-1H-imidazo[4,5-c]pyridine-2-carboxamido)-[1,1′-biphenyl]-3-yl)carbamoyl)-1-methyl-1,4,6,7-tetrahydro-5H-imidazo[4,5-c]pyridin-5-yl)cyclohexane-1-carboxylic acid]
Cc1c(NC(=O)c2nc3c(n2C)CCN(C2CCN(S(C)(=O)=O)CC2)C3)cccc1-c1cccc(NC(=O)c2nc3c(n2C)CCN(C)C3)c1Cl [Example 28, N-(2-chloro-2′-methyl-3′-(1-methyl-5-(1-(methylsulfonyl)piperidin-4-yl)-4,5,6,7-tetrahydro-1H-imidazo[4,5-c]pyridine-2-carboxamido)biphenyl-3-yl)-1,5-dimethyl-4,5,6,7-tetrahydro-1H-imidazo[4,5-c]pyridine-2-carboxamide]
Cn1c(C(=O)Nc2cccc(-c3cccc(NC(=O)c4nc5c(n4C)CCN(CC[C@H]4CC[C@H](C(=O)O)CC4)C5)c3Cl)c2Cl)nc2c1CCNC2 [Example 85, trans-4-(2-(2-((2,2′-dichloro-3′-(1-methyl-4,5,6,7-tetrahydro-1H-imidazo[4,5-c]pyridine-2-carboxamido)-[1,1′-biphenyl]-3-yl)carbamoyl)-1-methyl-1,4,6,7-tetrahydro-5H-imidazo[4,5-c]pyridin-5-yl)ethyl)cyclohexane-1-carboxylic acid]
Cn1c(C(=O)Nc2cccc(-c3cccc(NC(=O)c4nc5c(n4C)CCN(C4CCC(O)CC4)C5)c3Cl)c2Cl)nc2c1CCN(C[C@H]1CC[C@@H](C(=O)O)CC1)C2 (stereo partly drawn) [145 (compound 145-1), cis-4-((2-((2,2′-dichloro-3′-(5-(4-hydroxycyclohexyl)-1-methyl-4,5,6,7-tetrahydro-1H-imidazo[4,5-c]pyridine-2-carboxamido)-[1,1′-biphenyl]-3-yl)carbamoyl)-1-methyl-1,4,6,7-tetrahydro-5H-imidazo[4,5-c]pyridin-5-yl)methyl)cyclohexane-1-carboxylic acid]
Cn1c(C(=O)Nc2cccc(-c3cccc(NC(=O)c4nc5c(n4C)CCN(C[C@H]4CC[C@H](C(=O)O)CC4)C5)c3C#N)c2Cl)nc2c1CCN(C1CCOCC1)C2 [Compound 157, trans-4-((2-((2′-chloro-2-cyano-3′-(1-methyl-5-(tetrahydro-2H-pyran-4-yl)-4,5,6,7-tetrahydro-1H-imidazo[4,5-c]pyridine-2-carboxamido)-[1,1′-biphenyl]-3-yl)carbamoyl)-1-methyl-1,4,6,7-tetrahydro-5H-imidazo[4,5-c]pyridin-5-yl)methyl)cyclohexane-1-carboxylic acid]
CCN(C)CC(=O)N1Cc2nc(-c3cccc(-c4cccc(NC(=O)c5nc6c(n5C)CCN(C[C@H]5CC[C@H](C(=O)O)CC5)C6)c4Cl)c3Cl)oc2C1 [Compound 172, trans-4-((2-((2,2′-dichloro-3′-(5-(N-ethyl-N-methylglycyl)-5,6-dihydro-4H-pyrrolo[3,4-d]oxazol-2-yl)-[1,1′-biphenyl]-3-yl)carbamoyl)-1-methyl-1,4,6,7-tetrahydro-5H-imidazo[4,5-c]pyridin-5-yl)methyl)cyclohexane-1-carboxylic acid]
CC(C)N1CCc2c(nc(C(=O)Nc3cccc(-c4cccc(NC(=O)c5nc6c(n5C)CCN(CC[C@H]5CC[C@H](C(=O)O)CC5)C6)c4Cl)c3Cl)n2C)C1 [Example 88, trans-4-(2-(2-((2,2′-dichloro-3′-(5-isopropyl-1-methyl-4,5,6,7-tetrahydro-1H-imidazo[4,5-c]pyridine-2-carboxamido)-[1,1′-biphenyl]-3-yl)carbamoyl)-1-methyl-1,4,6,7-tetrahydro-5H-imidazo[4,5-c]pyridin-5-yl)ethyl)cyclohexane-1-carboxylic acid]
Cc1c(NC(=O)c2cc(CN3CC[C@@H](O)C3)cn(C)c2=O)cccc1-c1cccc(NC(=O)c2nc3c(n2C)CCN(C)C3)c1Cl [Example 48, (R)—N-(2-chloro-3′-(5-((3-hydroxypyrrolidin-1-yl)methyl)-1-methyl-2-oxo-1,2-dihydropyridine-3-carboxamido)-2′-methylbiphenyl-3-yl)-1,5-dimethyl-4,5,6,7-tetrahydro-1H-imidazo[4,5-c]pyridine-2-carboxamide]

From patent US10806785B2, “Immunomodulator compounds and methods of use” (Incyte Corporation, priority 2016, dated 2020)
